Test results as given in the Kinase Knowledgebase extract (Sharma et al. 2016).

Molecular target: PIK3CD (Human) (UniProt O00329)
Assay: Enzyme Assay

PIK3CD (Human), sequence (O00329 whole entry, looked up): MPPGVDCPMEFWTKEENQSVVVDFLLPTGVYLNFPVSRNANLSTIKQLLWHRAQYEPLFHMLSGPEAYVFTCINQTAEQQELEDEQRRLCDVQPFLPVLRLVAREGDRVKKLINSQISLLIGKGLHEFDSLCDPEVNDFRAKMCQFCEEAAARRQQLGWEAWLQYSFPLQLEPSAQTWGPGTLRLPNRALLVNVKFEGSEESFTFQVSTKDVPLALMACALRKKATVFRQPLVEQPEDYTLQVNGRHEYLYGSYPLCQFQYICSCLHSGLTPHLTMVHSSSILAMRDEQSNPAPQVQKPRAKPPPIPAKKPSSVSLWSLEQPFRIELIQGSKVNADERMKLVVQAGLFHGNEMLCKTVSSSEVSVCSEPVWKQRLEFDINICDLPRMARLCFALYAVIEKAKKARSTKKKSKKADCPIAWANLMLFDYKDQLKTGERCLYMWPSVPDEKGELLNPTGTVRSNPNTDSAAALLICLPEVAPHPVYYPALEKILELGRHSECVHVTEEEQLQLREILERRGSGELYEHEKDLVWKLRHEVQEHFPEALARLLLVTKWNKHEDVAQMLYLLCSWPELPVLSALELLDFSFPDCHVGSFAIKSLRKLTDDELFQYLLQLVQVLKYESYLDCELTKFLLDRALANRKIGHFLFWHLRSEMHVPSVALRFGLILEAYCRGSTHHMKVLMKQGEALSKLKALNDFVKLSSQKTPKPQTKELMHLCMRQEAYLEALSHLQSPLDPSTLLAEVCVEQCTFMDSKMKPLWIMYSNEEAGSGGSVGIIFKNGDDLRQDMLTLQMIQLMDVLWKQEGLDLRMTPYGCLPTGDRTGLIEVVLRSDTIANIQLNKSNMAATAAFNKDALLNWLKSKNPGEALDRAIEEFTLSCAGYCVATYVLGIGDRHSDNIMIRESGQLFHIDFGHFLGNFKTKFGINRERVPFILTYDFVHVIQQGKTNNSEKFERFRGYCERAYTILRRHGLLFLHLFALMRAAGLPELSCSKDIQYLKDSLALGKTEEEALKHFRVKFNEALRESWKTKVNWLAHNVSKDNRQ

Row | SMILES | IC50 [nM]
1 | CCn1c(-c2cnc(C)nc2)nc2c(O[C@@H]3CN(C(=O)OC(C)(C)C)CC3(F)F)ncnc21.CCn1c(-c2cnc(C)nc2)nc2c(O[C@H]3CN(C(=O)OC(C)(C)C)CC3(F)F)ncnc21 | 22
2 | CCn1ncc(-c2nc3c(O[C@H]4CCN(C(=O)c5nc6cc(Cl)ccn6n5)C4)ncnc3n2C)c1C | 860
3 | CCC(=O)N1CC[C@H](Oc2ncnc3c2nc(-c2cnc(OC)c(C)c2)n3C)C1 | 2.1
4 | CCn1c(-c2ccnc(OC)c2)nc2c(O[C@H]3CCN(C(=O)C4CC4)C3)ncnc21 | 20
5 | Cn1c(-c2ccc(-n3ccnc3)cc2)nc2c(O[C@H]3CCN(C(=O)OC(C)(C)C)C3)ncnc21 | 330
6 | CCn1c(-c2cnc(C)nc2)nc2c(O[C@H]3CCN(C(=O)C4[C@@H](C)[C@H]4C)C3)ncnc21 (stereo partly specified) | 12
7 | CCn1ncc(-c2nc3c(O[C@H]4CCN(C(=O)c5nnc(C)o5)C4)ncnc3n2C)c1C | 31
8 | Cc1ncc(-c2nc3c(O[C@H]4CCN(C(=O)OC(C)(C)C)C4)ncnc3n2C)n1C | 28
9 | CCn1ncc(-c2nc3c(O[C@@H]4CC[C@H](NC(=O)C5CCOCC5)C4)ncnc3n2C)c1C | 290
10 | CCn1ncc(-c2nc3c(O[C@H]4CCN(C(=O)c5nc(C(C)(C)O)no5)C4)ncnc3n2C)c1C | 110
11 | CCC(=O)N1CC[C@H](Oc2ncnc3c2nc(-c2cnc(C(C)(C)C)s2)n3C)C1 | 1.6
12 | CCn1c(-c2cnc(C)nc2)nc2c(O[C@H]3CCN(C(=O)N4CCC(C)(O)C4)C3)ncnc21 (stereo partly specified) | 7.3
13 | CCn1ncc(-c2nc3c(O[C@H]4CCN(C(=O)c5cnoc5C5CC5)C4)ncnc3n2C)c1C | 79
14 | CCn1ncc(-c2nc3c(O[C@H]4CCN(C(=O)c5cnoc5C(C)C)C4)ncnc3n2C)c1C | 41
15 | CCn1ncc(-c2nc3c(OC4CCC(C(=O)N5CCOCC5)C4)ncnc3n2C)c1C (stereo unspecified) | 220
16 | COc1ncc(-c2nc3c(O[C@H]4CCN(C(=O)OC(C)(C)C)C4)ncnc3n2C)cc1C | 2.6
